# Test results reported in PMC6821309, “Optimization of Insect Odorant Receptor Trafficking and Functional Expression Via Transient Transfection in HEK293 Cells” (Chemical Senses, 2019).
# Key:
# [1] = biological target: T1, Or56a/Orco (pDmelOR-R.E.hOr56a; mRho.V5.mER.hOr56a + hOrco) (Drosophila melanogaster, UniProt Q9V8Y7); assay: Fura-2 calcium imaging, automated platform, response normalized to VUAA1; format: cell-based; settings: agonist; 1 mM CaCl2, pH 7.4; 3-parameter logistic fit; transient HEK293
# T1 construct: human codon-optimized Or56a with N-terminal mRho.V5.mER tag; N-terminal myc-tagged codon-optimized Orco, spliced chimeric intron; bidirectional vector, transient HEK293; with Odorant receptor coreceptor
# T1 sequence (Q9V8Y7 1-419): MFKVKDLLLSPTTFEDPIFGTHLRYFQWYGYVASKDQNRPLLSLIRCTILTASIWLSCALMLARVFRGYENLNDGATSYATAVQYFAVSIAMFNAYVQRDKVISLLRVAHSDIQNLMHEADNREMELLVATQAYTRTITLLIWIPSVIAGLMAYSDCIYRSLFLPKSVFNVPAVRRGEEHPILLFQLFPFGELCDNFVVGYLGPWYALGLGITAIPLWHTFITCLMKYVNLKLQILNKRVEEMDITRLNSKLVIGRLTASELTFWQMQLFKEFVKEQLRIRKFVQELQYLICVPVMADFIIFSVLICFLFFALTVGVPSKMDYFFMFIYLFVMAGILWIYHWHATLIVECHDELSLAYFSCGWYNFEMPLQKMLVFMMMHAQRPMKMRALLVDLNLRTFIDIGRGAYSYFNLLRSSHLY
# T1 sequence (Q9VNB5 1-486 partner): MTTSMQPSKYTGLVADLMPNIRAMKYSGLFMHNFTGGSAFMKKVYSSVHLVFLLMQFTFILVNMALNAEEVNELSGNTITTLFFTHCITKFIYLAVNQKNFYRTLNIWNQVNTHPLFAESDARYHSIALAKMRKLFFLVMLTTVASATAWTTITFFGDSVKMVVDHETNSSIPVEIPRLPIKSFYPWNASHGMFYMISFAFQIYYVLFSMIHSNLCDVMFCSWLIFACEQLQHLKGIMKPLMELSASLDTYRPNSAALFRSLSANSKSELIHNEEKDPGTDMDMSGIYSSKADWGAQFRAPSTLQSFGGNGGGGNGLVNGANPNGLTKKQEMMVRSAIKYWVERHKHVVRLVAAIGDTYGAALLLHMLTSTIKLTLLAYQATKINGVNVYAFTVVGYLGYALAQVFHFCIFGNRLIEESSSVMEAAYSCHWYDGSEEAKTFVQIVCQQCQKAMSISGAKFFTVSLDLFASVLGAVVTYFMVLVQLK
# Text: Fura-2 calcium imaging, automated platform, response normalized to VUAA1 on Or56a/Orco (pDmelOR-R.E.hOr56a; mRho.V5.mER.hOr56a + hOrco) | or with pDmelOR-R.E.hOr56a and stimulated with geosmin (e)
# [2] = biological target: T2, Or47a/Orco heteromer (pDmelOR-R.E.hOr47a; mRho.V5.mER.hOr47a + hOrco) (Drosophila melanogaster, UniProt P81921); assay: as above; format: cell-based; settings: agonist; 1 mM CaCl2, pH 7.4; 3-parameter logistic fit; transient HEK293
# T2 construct: N-terminal myc-tagged codon-optimized Orco, spliced chimeric intron; bidirectional vector, transient HEK293; with Odorant receptor coreceptor
# T2 sequence (P81921 1-385): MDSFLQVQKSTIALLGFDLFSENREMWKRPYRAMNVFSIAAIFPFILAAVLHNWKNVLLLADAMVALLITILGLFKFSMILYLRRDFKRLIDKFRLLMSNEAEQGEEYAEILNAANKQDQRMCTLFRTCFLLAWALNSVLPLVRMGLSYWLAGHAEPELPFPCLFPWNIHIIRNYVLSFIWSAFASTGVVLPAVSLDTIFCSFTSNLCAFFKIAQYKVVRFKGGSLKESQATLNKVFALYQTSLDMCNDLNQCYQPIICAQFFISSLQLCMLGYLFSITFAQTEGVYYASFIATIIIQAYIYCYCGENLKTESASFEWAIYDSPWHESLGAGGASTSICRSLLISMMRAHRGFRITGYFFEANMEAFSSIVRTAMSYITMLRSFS
# T2 sequence (Q9VNB5 1-486 partner): T1 sequence (Q9VNB5 1-486 partner)
# Text: Fura-2 calcium imaging, automated platform, response normalized to VUAA1 on Or47a/Orco heteromer (pDmelOR-R.E.hOr47a; mRho.V5.mER.hOr47a + hOrco) | transfected with pDmelOR-R.E.hOr47a and stimulated with pentyl acetate (d)
Structure (SMILES),EC50 [1],EC50 [2]
CC1CCCC2(C)CCCCC12O (racemic) [geosmin],7.19·10^–7 (3.97 × 10^–7; 1.30 × 10^–6) M,
CCCCCOC(C)=O [pentyl acetate],,2.45·10^–5 (1.83 × 10^–5; 3.29 × 10^–5) M
